Measurements reported in patent US5413787A, “Bioparyl, a biological regulator, active against various pathologies” (priority 1988, dated 1995).

Key:
[1] = tested on: RNases from patients affected by cancers, auto-immune diseases or viral pathologies; assay: Effect of iron on in vitro activity of RNases from patients; assay type: biochemical, human; settings: cancers (leukemia, solid cancers)
Description: (§1) Bioparyl dissolved in distilled water (pH 7.0, 5 mg/ml) is used (0.01 to 0.05 ml). Incubation medium (0.15 ml final volume) contains: Tris-HCl buffer, 10^-2 M pH 7.60: 0.05 ml; ^3 H-RNA (r-RNA or 4 S RNA), 100 μg, 15,000 CPM: 0.05 ml; ten-times diluted plasma: 0.01 to 0.05 ml. After incubation at 36° C. for 10 min. (water bath) (generally necessary conditions but that may vary in case of necessity), the reaction is stopped by addition of 3 ml trichloroacetic acid (TCA) (5%); the tubes are cooled in order to assure a good precipitation of proteins and undegraded ^3 H-RNA.
(§2) The precipitate is filtered on glass millipore (GF/C, Whatman), washed with 5% TCA solution then with 95° ethyl alcohol. The filters are dried and the radioactivity determined in a scintillation spectrometer. The results are expressed as percent of non-degraded radioactive RNA, the radioactivity of initial intact RNA being taken as 100%.
(§3) One knows that the RNases enable the furnishing of the RNA primers necessary for the replication of DNA, and that the primers accepted by DNA from healthy tissues are not the same as the primers required for replication of DNA from cancer tissues. Thus, regulation of RNases (enzymes able to provide primers in cells)is a capital phenomenon in carcinology and virology.

[2] = tested on: RNases in plasma of healthy persons; assay: Effect of iron on in vitro activity of RNases of healthy persons; assay type: biochemical, human; settings: FIG. 5
Description: as §1, §2, §3

[3] = tested on: RNases from human fibrosis skin; assay: In vitro RNase activity of radiation-induced skin fibrosis extract (r-RNA degradation); assay type: biochemical; settings: FIG. 7
Description: Sample of skin fibrosis induced by radiation has been broken in a mortar (4° C.) in the presence of Tris-HCl buffer 0.02M containing 0.06M KCl and 0.001M MgCl2. Final volume: 1.5 ml. The activity of RNases present in this extract has been tested with 4 S RNA and ribosomal RNA (r-RNA); 0.01; 0.02; 0.03 and 0.04 ml of enzyme extract were incubated in the presence of radioactive ^3 H-r-RNA or ^3 H-4 S RNA. Incubation time: 15 min. at 36° C. The results are illustrated in FIG. 7. Degradation of labelled RNA is linear in function of increasing concentration of the extract. r-RNA is more rapidly degraded than 4 S RNA. […] Ferric iron (FeCl3), at low concentrations, stimulates r-RNA degradation; but at higher concentrations it inhibits it.

[Cl][Fe]([Cl])[Cl] [Ferric iron]
in vitro activity of RNases from patients under ferric iron [1]: strongly accelerates | in vitro activity of RNases of healthy persons under iron [2]: without effect | r-RNA degradation by fibrosis skin RNases, FeCl3 higher concentrations ([3]; at higher concentrations): inhibits | r-RNA degradation by fibrosis skin RNases, FeCl3 low concentrations ([3]; at low concentrations): stimulates
